Laboratory results as given in patent US20170121768A1, “ATRIAL FIBRILLATION THERAPY” (The University of Birmingham, priority 2014, published 2017).

Tests used:
Pitx2c+/- left atria = experiment: Transmembrane potential recordings in isolated, superfused left atria, Pitx2c+/-; set-up: species or system mouse; details: sharp electrodes
Procedure: (§1) Transmembrane action potentials were recorded from isolated superfused left atria using borosilicate glass microelectrodes (tip resistance 15-30 MΩ), filled with 3 M KCl. […] LA were paced at different cycle lengths at 2 ms pulse width at 2× diastolic threshold through bipolar platinum electrodes. APD was analysed off line (spike 2, CED, UK). After 15 min pacing for equilibration, preparations were paced successively at increasing frequencies from 0.5 to 10 Hz, with 200 beats at each frequency to ensure steady state prior to recording.

wildtype left atria = experiment: Transmembrane potential recordings in isolated, superfused left atria, wild type; set-up: species or system mouse; details: sharp electrodes
Procedure: as §1

[1] = tested on: wild type mouse heart (left atrium); experiment: Electrophysiological study in the isolated Langendorff-perfused beating heart, wild type mice
Excerpt: (§2) The inventors studied the effects of the sodium channel blocker flecainide in the isolated, beating heart of wild type mice and mice with a heterozygous deletion of the Pitx2c gene. This mouse model (provided by Nigel Brown, St George's London) is an established model for reduced Pitx2 mRNA expression that is susceptible to AF. […] PITX2c^+/− and WT hearts (3-4 months old), were rapidly excised and Langendorff-perfused to record left atrial (LA) monophasic action potential duration. In this preparation, the beating heart is perfused with a warm, oxygenated modified Krebs-Henseleit solution containing (in mmol/1): NaCl 118; NaHCO3 24.88; KH2PO 1.18; Glucose 5.55; Na-Pyruvate 5; MgSO4 0.83; CaCl2 1.8; KCl 3.52 (95% O2-5% CO2, pH 7.4) at constant perfusion pressure (100±5 mmHg) and coronary flow (4±0.5 ml/min). Thereby, detailed electrophysiological measurements can be taken for 1-2 hours in the beating, functioning, intact heart (perfusate temperature 37° C., perfusion flow rate 3-5 mL/min) (Fabritz et al., Basic Res Cardiol 2003; 98:25-32). An octapolar murine electrophysiology catheter (0.5 mm electrode spacing, CIB'ER MOUSE, NuMED, Hopkinton, N.Y., USA) was inserted into the right atrium (RA) and right ventricle for pacing. Atrial and ventricular electrograms and monophasic action potential (MAP) from the left atrium were simultaneously recorded. After instrumentation, the hearts were subjected to a stabilization period of 10 minutes, followed by observation of spontaneous sinus rhythm for 5 minutes to provoke repolarization-related arrhythmias. Then the right atrium was paced at constant physiological heart rates (80-120 ms paced cycle length) for 1.5 minutes of pacing per heart rate to record steady-state action potential duration, and premature right atrial stimulation was performed using trains of 8 beats following by a premature stimulus in 2 ms steps to determine the effective refractory period (ERP) and inducibility of arrhythmias. Arrhythmias>1 second were counted. The pacing protocol was repeated after adding flecainide acetate (1 μm) to the perfusate. Experiments were accepted for analysis of action potential duration and activation time if they met published quality criteria and if MAPs were stable. […] were accepted for analysis of action potentials and activation times, and signals>0.5 mV amplitude were accepted for evaluation of arrhythmias. Recordings were manually screened for arrhythmias. Atrial fibrillation was defined as >5 closely couple polymorphic consecutive atrial ectopic beats with a cycle length shorter than sinus-rhythm cycle length.

[2] = tested on: Pitx2c+/- mouse heart (left atrium); experiment: Electrophysiological study in the isolated Langendorff-perfused beating heart, Pitx2c+/- mice
Excerpt: as §2

Compound	resting membrane potential (Pitx2c+/- left atria)	resting membrane potential (wildtype left atria)	atrial action potential duration (APD) ([1]; WT hearts, flecainide perfusion, paced cycle lengths 80-100-120 ms)	post-repolarization refractoriness ([1]; WT mice, 80 ms paced cycle length, flecainide perfusion) [ms]	hearts with arrhythmias ([1]; wild type hearts with flecainide (baseline 4/16), arrhythmias >1 second counted)	suppression of inducible atrial fibrillation ([1]; wild type hearts, flecainide acetate 1 μm in perfusate, premature atrial stimulation)	atrial activation times ([1]; wild-type mice, after flecainide perfusion)	effective refractory period (ERP) ([2]; Pitx2c+/- hearts after flecainide perfusion, compared with wild-type)	suppression of inducible atrial fibrillation ([2]; Pitx2c+/- hearts with AF at baseline (8/21), flecainide acetate 1 μm in perfusate, premature atrial stimulation)	atrial action potential duration (APD) ([2]; Pitx2c+/- hearts, flecainide perfusion, paced cycle lengths 80-100-120 ms)	post-repolarization refractoriness ([2]; Pitx2c+/- mice, 80 ms paced cycle length, flecainide perfusion) [ms]	atrial activation times ([2]; Pitx2c+/- mice, after flecainide perfusion)	atrial APD ([1]; WT hearts, sotalol 10 μM, three pairs of mice)	atrial APD ([2]; Pitx2c+/- hearts, sotalol 10 μM, three pairs of mice)
O=C(NCC1CCCCN1)c1cc(OCC(F)(F)F)ccc1OCC(F)(F)F (centres unmarked) [flecainide]	did not alter resting membrane potential	did not alter resting membrane potential	does not alter atrial APD	7.5	4/11	did not suppress atrial fibrillation	negligible effect	increases effective refractory periods	suppressed atrial fibrillation in all Pitx2c+/− hearts	does not alter atrial APD	12	marked effect	–	–
CC(C)NCC(O)c1ccc(NS(C)(=O)=O)cc1 (centres unmarked) [sotalol, d,l sotalol]	–	–	–	–	–	–	–	–	–	–	–	–	prolonged atrial APD	did not alter atrial APD
